Data from patent US20200368288A1, “Hierarchic Neural Microphysiological System for Brain Function and Disorders” (The Trustees of Columbia University in the City of New York, priority 2018, published 2020).
Like-named read-outs stand apart in the source and are kept apart here.

Assays:
Setd1a+/− MoNNets = test: Rescue of Setd1a+/- MoNNet network pathophysiology by LSD1 inhibition, Ca2+ imaging before and after treatment; format: cell-based, mice
Description: Taking advantage of MoNNet properties, effective in vitro models of SCZ-associated network pathophysiology (SCZ-MoNNets) were developed. SCZ is characterized by psychosis, cognitive dysfunction and a broad spectrum of complex behavioral abnormalities (Clementz et al., 2016). Several recent studies in animal models have investigated the underlying circuit pathophysiology, identifying deficits in activity synchrony and degraded ensembles (Fenelon et al., 2013; Hamm et al., 2017; Hamm et al., 2020; Marissal et al., 2018; Sigurdsson et al., 2010; Zaremba et al., 2017). Therefore, the MoNNet approach provides a well suited system to develop quantitative in vitro models of SCZ-like network function pathophysiology. We developed and characterized MoNNet preparations (SCZ-MoNNets) from two well-studied genetic models—Setd1a+/− and Df(16)A+/−, which recapitulate SCZ-related cognitive and circuitry pathophysiology (Fenelon et al., 2013; Mukai et al., 2019). […] The lower-level deviations in molecular, cellular and synaptic pathways underlying the observed alterations in network states remain to be determined and may be different for each mutation.
Hippocampal neuronal cultures were generated from E17 to E18 embryos by building upon standard cell culture techniques, as follows. Pregnant mice were anesthetized under isoflurane, and euthanized by cervical dislocation. Hippocampus were dissected in Hibernate E (Gibco) iced cold media, and incubated in 0.25% Trypsin-EDTA (Gibco) at 37° C. for […]., followed by […] DNAse I (1 μg/ml; Sigma) incubation at room temperature. Mechanical dissociation of dissected hippocampus was performed by repeated pipetting with a fire-polished glass Pasteur pipet until a homogenous cell suspension was obtained. Cell viability was determined by Trypan Blue exclusion assay. Cell solution was then centrifuged at 150 g for […], and the supernatant was removed. Resulting cell pellet was resuspended in the culture media containing Neurobasal media, 2% B27, 0.5 mM Glutamate and 1% Penicillin/Streptomycin (Gibco). Cells were infected with AAV1.Syn.GCaMP6f.WPRE.SV40 virus ((Chen et al., 2013); Pennsylvania Vector Core, Cat #:AV-1-PV2822). For single spheroid cultures, 2% agarose 96 wells (400 μm diameter) micro-molds were created by using custom casts fabricated by 3D printing (UV-resin; Formlabs 3D printer). The agarose micro molds were equilibrated in the culture medium over a 24 h period prior to plating. […]
Imaging was performed using a wide-field fluorescence microscope (Leica M165FC) equipped with a long-pass GFP filter set (Leica filter set ET GFP M205FA/M165FC), 1.6× Plan Apo objective, 3.2× zoom and sCMOS camera (Hamamatsu ORCA-Flash 4.0). Time-lapse videos were recorded at 30 Hz for ˜4.5 min at 37° C. […]

NNet preparation = test: Modeling epileptic seizures with NNet (4-AP local injection, picrotoxin addition); format: cell-based
Procedure: 4-AP, a commonly used seizure inducing compound, was injected in a specific neurosphere of an NNet preparation. […] As shown in the magnified view (top row, third) these peaks are maintained during the time. […] In FIG. 6 the colored maps (bottom) show the spatial progression of the seizure waves in three different bouts (labeled as Epi. Events #1, #2, and #3). The directionality of seizure spread is maintained constant from bottom-left to top-right.

MoNNet neurons = test: Whole cell electrophysiology recordings in MoNNet, synaptic transmission across spheroids; format: cell-based, mice
Procedure: Whole cell recordings were performed as described previously (Crabtree et al., 2016; Crabtree et al., 2017), using borosilicate glass pipettes (initial resistance 3-5.5 MS2) which were filled with an intracellular solution containing: K methanesulfonate 125 mM, NaCl 10 mM, CaCl2) 1 mM, MgCl2 1 mM, HEPES 10 mM, EGTA 0.1 mM, MgATP 5 mM, NaGTP 0.5 mM. The pH was adjusted to 7.2 with KOH. Spontaneous synaptic events were assessed at −70 mV (presumptive glutamatergic) and at 0 mV (presumptive GABAergic). Excitatory and inhibitory evoked synaptic responses were assessed as follows. Evoked synaptic responses across spheroid units were elicited with electric stimulation applied with a concentric bipolar stimulating electrode (tip diameter 0.125 mm, FHC, Bowdinham, Me.) positioned on a spheroid >250 μm away from the spheroid containing the recorded neuron. The stimulus was set to 10V, a duration of 100 μs and applied at 10 Hz. […] Neurons were then held in voltage-clamp at 0 mV to assess evoked inhibitory synaptic responses. For assessing neuronal excitability in current-step, action potential firing was recorded in response to incremental (20 pA steps) depolarizing current injections (500 ms duration). Bridge balance of series resistance was employed and recordings with series resistance >20 MΩ were rejected. For current-step assays, resting membrane potential was adjusted to ˜−70 mV by injection of a small standing current. For voltage steps, cells were held at −70 mV, and 10 mV steps were applied ranging from −100 mV to 50 mV. Series resistance-related errors were partially corrected by using 70% prediction and 70% series resistance compensation.

LSD1 = LSD1 (Mus musculus, UniProt Q6ZQ88); conditions: Mukai et al., 2019; cited from earlier work
NNet preparations = test: Chronic ketamine treatment NNet model of schizophrenia pathophysiology, calcium imaging; conditions: ketamine 10 μM every 24 hours vs saline control; imaging before and 2 days after
[1] = 2-day treatment, TCP 600 nM, ORY-1001 0.6-0.9 nM
[2] = picrotoxin added after 4-AP local injection

Question: For `N[C@@H]1C[C@H]1c1ccccc1` (racemic) [TCP, Tranylcypromine], which ensembles stability (Setd1a+/− MoNNets) is on record?
Answer: Its ensembles stability is “partial rescue”.

Question: And the network synchrony (Setd1a+/− MoNNets)?
Answer: The network synchrony was “partial rescue”.

Question: Which seizure peaks (NNet preparation; local injection in a specific neurosphere) does the source give for `Nc1ccncc1` [4-AP] here?
Answer: Its seizure peaks is “typical high seizure peaks”.

Question: Which results are given for `N#Cc1cc2[nH]c(=O)c(=O)[nH]c2cc1[N+](=O)[O-]` [CNQX]?
Answer: evoked inhibitory synaptic transmission across spheroids (MoNNet neurons; CNQX 10 μM blockade of glutamatergic transmission, cell held at 0 mV): robust evoked inhibitory synaptic transmission; evoked excitatory synaptic responses (MoNNet neurons; CNQX 10 μM washed in with ACSF, voltage-clamp at −70 mV, 10 Hz stimulation of neighboring spheroid): completely ablated; spontaneous inhibitory synaptic events (MoNNet neurons; CNQX 10 μM, neuron held at 0 mV): reduction

Question: Which results are given for `N[C@H]1CC[C@H](N[C@@H]2C[C@H]2c2ccccc2)CC1` [ORY-1001]?
Answer: ensembles stability (Setd1a+/− MoNNets; [1]): partial rescue; network synchrony (Setd1a+/− MoNNets; [1]): partial rescue; cellular and behavioral defects (LSD1): effective in partial rescue

Question: For `CNC1(c2ccccc2Cl)CCCCC1=O` (stereo not drawn) [ketamine], which “correlation among neurosphere units of NNet” value (NNet preparations) is on record?
Answer: Its value is “decreased”.

Question: Which results are given for picrotoxin?
Answer: directionality of seizure spread (NNet preparation; [2]): directionality becomes random; frequency of number of events (NNet preparation; [2]): increased frequency of number of events
